# Experimental data taken from patent US20210228463A1, “COMPOSITION FOR FAT FORMATION INHIBITION AND BODY FAT REDUCTION, CONTAINING HYDRANGENOL AS ACTIVE INGREDIENT” (COSMAX BIO CO., LTD., priority 2019, published 2021).
# Tests used:
# [1] = test system: PPARγ; assay: Western blotting of PPARγ expression in adipocytes; assay type: cell-based; details: 3T3-L1 differentiated for 10 days, hydrangenol 2.5 ug/ml, 24 hours, FIG. 3
# Method: (§1) The mechanism of reducing triglyceride in adipocytes was examined for the hydrangenol-containing hydrangea (Hydrangea serrata) and hydrangenol. A pre-adipocyte 3T3-L1 was differentiated for 10 days and treated with hydrangea (Hydrangea serrata) (25 ug/ml) and hydrangenol (2.5 ug/ml) for 24 hours, respectively. Thereafter, the cells were lysed using a modified LIPA buffer, and each 20 ug thereof was used for analysis. p-mTOR(ab109268, Abcam), p-FOXO1(9461S, Cell Signaling), PPARγ(sc-7273, Santa Cruz), and β-actin(A5316, Sigma) primary antibodies were used for analysis, respectively.
# [2] = test system: AMPK; assay: Expression of p-AMPK protein in adipose and liver tissues by HG; assay type: in vivo, mice; details: HG-treated group, Western blotting, FIG. 18
# Method: To analyze in vivo anti-obesity efficacy of HG, animal models of obesity were prepared. 8-week-old male C57BL/6N mice (SPF grade, 20±2 g, Orient Bio) were set into 7 groups as follows, and 10 mice per each group were tested: as normal control groups, normal mice (con) with no high fat diet and no administration, and obese mice (HFD) with induction of obesity by 30% high fat diet and no administration, and as a positive control group, obese mice with oral administration of orlistat which is an anti-obesity agent. As experimental groups, obese mice with oral administration of HG of 20 mg/kg, 40 mg/kg, or 80 mg/kg, and normal mice with oral administration of HG of 80 mg/kg were used. Mice were administered with HG at the same time with induction of obesity, and HG was administered for 5 days per week for 12 weeks. A dark: light cycle was maintained at intervals of 12 hours: 12 hours, and mice were allowed to free access to water. […]
# Specifically, adipose and liver tissues were mixed with a protein extraction solution, homogenized using a tissue homogenizer, and then centrifuged at 4° C., 15,000 rpm for 30 minutes to obtain a supernatant, and then a standard curve was created using the Bradford method to quantify protein. […]
# [3] = test system: forkhead box 01 (FoxO1); assay: Western blotting of p-FOXO1 in adipocytes; assay type: cell-based; details: 3T3-L1 differentiated for 10 days, hydrangenol 2.5 ug/ml, 24 hours, FIG. 3
# Method: as §1
compound,measurement,setting,value
"O=C1OC(c2ccc(O)cc2)Cc2cccc(O)c21 (stereo not drawn) [HG, 8-hydroxy-3-(4-hydroxyphenyl)-3,4-dihydroisochromen-1-one]",expression level of peroxisome proliferator-activated receptor gamma y (PPAR),[1],reduction
same,amount of phosphorylated AMPK protein,[2],increased
same,phosphorylation of forkhead box 01 (FoxO1),[3],increase
